Test results from ChEMBL document CHEMBL3112450, “Synthesis and in vitro antitumor evaluation of primary amine substituted quinazoline linked benzimidazole” (Bioorg Med Chem Lett, 2014).

Key:
Assay type in all cases: functional
[1] = system: SF-268; assay: Cytotoxicity against human SF268 cells assessed as cell growth at 10^-5 M after 48 hrs by SRB assay; settings: SF-268, 48 h, read-out: Activity
[2] = system: NCI-H226; assay: Cytotoxicity against human NCI-H226 cells assessed as cell growth at 10^-5 M after 48 hrs by SRB assay; settings: NCI-H226, 48 h, read-out: Activity
[3] = Cytotoxicity against human Hs578T cells assessed as cell growth at 10^-5 M after 48 hrs by SRB assay; settings: Hs-578T, read-out: Activity
[4] = system: SR; assay: Cytotoxicity against human SR cells assessed as cell growth at 10^-5 M after 48 hrs by SRB assay; settings: read-out: Activity
[5] = system: NCI-H322M; assay: Cytotoxicity against human NCI-H322M cells assessed as cell growth at 10^-5 M after 48 hrs by SRB assay; settings: read-out: Activity
[6] = system: BT-549; assay: Cytotoxicity against human BT549 cells assessed as cell growth at 10^-5 M after 48 hrs by SRB assay; settings: BT-549, 48 h, read-out: Activity
[7] = system: SW-620; assay: Cytotoxicity against human SW620 cells assessed as cell growth at 10^-5 M after 48 hrs by SRB assay; settings: SW-620, 48 h, read-out: Activity
[8] = system: SNB-19; assay: Cytotoxicity against human SNB19 cells assessed as cell growth at 10^-5 M after 48 hrs by SRB assay; settings: SNB-19, 48 h, read-out: Activity
[9] = Cytotoxicity against human NCI-ADR-RES cells assessed as cell growth at 10^-5 M after 48 hrs by SRB assay; settings: read-out: Activity
[10] = system: HCT-15; assay: Cytotoxicity against human HCT15 cells assessed as cell growth at 10^-5 M after 48 hrs by SRB assay; settings: HCT-15, 48 h, read-out: Activity
[11] = system: COLO 205; assay: Cytotoxicity against human COLO205 cells assessed as cell growth at 10^-5 M after 48 hrs by SRB assay; settings: COLO 205, 48 h, read-out: Activity
[12] = system: HOP-92; assay: Cytotoxicity against human HOP92 cells assessed as cell growth at 10^-5 M after 48 hrs by SRB assay; settings: HOP-92, 48 h, read-out: Activity
[13] = system: CAKI-1; assay: Cytotoxicity against human Caki1 cells assessed as cell growth at 10^-5 M after 48 hrs by SRB assay; settings: CAKI-1, 48 h, read-out: Activity
[14] = system: DU-145; assay: Cytotoxicity against human DU145 cells assessed as cell growth at 10^-5 M after 48 hrs by SRB assay; settings: DU-145, 48 h, read-out: Activity
[15] = system: SF-539; assay: Cytotoxicity against human SF539 cells assessed as cell growth at 10^-5 M after 48 hrs by SRB assay; settings: SF-539, 48 h, read-out: Activity
[16] = Cytotoxicity against human UO31 cells assessed as cell growth at 10^-5 M after 48 hrs by SRB assay; settings: UO-31, 48 h, read-out: Activity
[17] = system: MDA-MB-435; assay: Cytotoxicity against human MDA-MB-435 cells assessed as cell growth at 10^-5 M after 48 hrs by SRB assay; settings: MDA-MB-435, 48 h, read-out: Activity
[18] = system: PC-3; assay: Cytotoxicity against human PC3 cells assessed as cell growth at 10^-5 M after 48 hrs by SRB assay; settings: PC-3, 48 h, read-out: Activity
[19] = system: 786-0; assay: Cytotoxicity against human 786-0 cells assessed as cell growth at 10^-5 M after 48 hrs by SRB assay; settings: 786-0, 48 h, read-out: Activity
[20] = system: MDA-MB-468; assay: Cytotoxicity against human MDA-MB-468 cells assessed as cell growth at 10^-5 M after 48 hrs by SRB assay; settings: MDA-MB-468, 48 h, read-out: Activity
[21] = system: CCRF-CEM; assay: Cytotoxicity against human CCRF-CEM cells assessed as cell growth at 10^-5 M after 48 hrs by SRB assay; settings: read-out: Activity
[22] = system: RPMI-8226; assay: Cytotoxicity against human RPMI8226 cells assessed as cell growth at 10^-5 M after 48 hrs by SRB assay; settings: RPMI-8226, 48 h, read-out: Activity
[23] = system: MCF7; assay: Cytotoxicity against human MCF7 cells assessed as cell growth at 10^-5 M after 48 hrs by SRB assay; settings: MCF7, 48 h, read-out: Activity
[24] = system: HCT-116; assay: Cytotoxicity against human HCT116 cells assessed as cell growth at 10^-5 M after 48 hrs by SRB assay; settings: HCT-116, 48 h, read-out: Activity
[25] = system: A549; assay: Cytotoxicity against human A549 cells assessed as cell growth at 10^-5 M after 48 hrs by SRB assay; settings: A549, 48 h, read-out: Activity
[26] = system: HL-60(TB); assay: Cytotoxicity against human HL-60(TB) cells assessed as cell growth at 10^-5 M after 48 hrs by SRB assay; settings: HL-60, 48 h, read-out: Activity
[27] = system: HCC 2998; assay: Cytotoxicity against human HCC2998 cells assessed as cell growth at 10^-5 M after 48 hrs by SRB assay; settings: HCC 2998, 48 h, read-out: Activity
[28] = system: Malme-3M; assay: Cytotoxicity against human MALME-3M cells assessed as cell growth at 10^-5 M after 48 hrs by SRB assay; settings: read-out: Activity
[29] = system: ACHN; assay: Cytotoxicity against human ACHN cells assessed as cell growth at 10^-5 M after 48 hrs by SRB assay; settings: read-out: Activity
[30] = system: MOLT-4; assay: Cytotoxicity against human MOLT4 cells assessed as cell growth at 10^-5 M after 48 hrs by SRB assay; settings: MOLT-4, 48 h, read-out: Activity
[31] = system: TK-10; assay: Cytotoxicity against human TK10 cells assessed as cell growth at 10^-5 M after 48 hrs by SRB assay; settings: TK-10, 48 h, read-out: Activity
[32] = system: SK-MEL-5; assay: Cytotoxicity against human SK-MEL-5 cells assessed as cell growth at 10^-5 M after 48 hrs by SRB assay; settings: SK-MEL-5, 48 h, read-out: Activity
[33] = system: OVCAR-8; assay: Cytotoxicity against human OVCAR8 cells assessed as cell growth at 10^-5 M after 48 hrs by SRB assay; settings: OVCAR-8, 48 h, read-out: Activity
[34] = system: SK-MEL-28; assay: Cytotoxicity against human SK-MEL-28 cells assessed as cell growth at 10^-5 M after 48 hrs by SRB assay; settings: SK-MEL-28, 48 h, read-out: Activity
[35] = system: A498; assay: Cytotoxicity against human A498 cells assessed as cell growth at 10^-5 M after 48 hrs by SRB assay; settings: A498, 48 h, read-out: Activity
[36] = system: SNB-75; assay: Cytotoxicity against human SNB75 cells assessed as cell growth at 10^-5 M after 48 hrs by SRB assay; settings: SNB-75, 48 h, read-out: Activity
[37] = system: HOP-62; assay: Cytotoxicity against human HOP62 cells assessed as cell growth at 10^-5 M after 48 hrs by SRB assay; settings: HOP-62, 48 h, read-out: Activity

For `C=CCn1c(C)nc2ccc(Nc3nc(Nc4ccc5nc(C)n(CC=C)c5c4)c4ccccc4n3)cc21`, the growth at 10 µM [1] was -77%, the growth at 10 µM [2] was -87% and the growth at 10 µM [3] was -52%. For the same molecule, the growth at 10 µM [4] was -57.2%, the growth at 10 µM [5] was -88% and the growth at 10 µM [6] was -86%. For the same molecule, the growth at 10 µM [7] was -91%, the growth at 10 µM [8] was -69% and the growth at 10 µM [9] was -25%. It also gave a growth at 10 µM [10] of -74%, a growth at 10 µM [11] of -100% and a growth at 10 µM [12] of -80%. It also gave a growth at 10 µM [13] of -81%, a growth at 10 µM [14] of -98% and a growth at 10 µM [15] of -96%. The growth at 10 µM [16] was -91.4%, the growth at 10 µM [17] was -84% and the growth at 10 µM [18] was -82%. For the same molecule, the growth at 10 µM [19] was -93.8%, the growth at 10 µM [20] was -99% and the growth at 10 µM [21] was -20.8%. The growth at 10 µM [22] was -43.3%, the growth at 10 µM [23] was -100% and the growth at 10 µM [24] was -100%. The growth at 10 µM [25] was -90%, the growth at 10 µM [26] was -71% and the growth at 10 µM [27] was -100%. It also gave a growth at 10 µM [28] of -78.9%, a growth at 10 µM [29] of -99% and a growth at 10 µM [30] of -45.5%. The growth at 10 µM [31] was -97%, the growth at 10 µM [32] was -98% and the growth at 10 µM [33] was -76%. The growth at 10 µM [34] was -96%, the growth at 10 µM [35] was -91% and the growth at 10 µM [36] was -95.2%. For the same molecule, the growth at 10 µM [37] was -100%.

`C=CCn1c(C)nc2cc(Nc3nc(Nc4ccc5nc(C)n(CC=C)c5c4)c4ccccc4n3)ccc21` gave a growth at 10 µM [1] of -99%, a growth at 10 µM [2] of -47.1% and a growth at 10 µM [3] of -48.1%. For the same molecule, the growth at 10 µM [4] was -44.2%, the growth at 10 µM [5] was -100% and the growth at 10 µM [6] was -96%. It also gave a growth at 10 µM [7] of -76.2%, a growth at 10 µM [8] of -75% and a growth at 10 µM [9] of -46%. It also gave a growth at 10 µM [10] of -78%, a growth at 10 µM [11] of -100% and a growth at 10 µM [12] of -97%. It also gave a growth at 10 µM [13] of -95%, a growth at 10 µM [14] of -100% and a growth at 10 µM [15] of -100%. For the same molecule, the growth at 10 µM [16] was -99%, the growth at 10 µM [17] was -92% and the growth at 10 µM [18] was -100%. For the same molecule, the growth at 10 µM [19] was -80%, the growth at 10 µM [20] was -85% and the growth at 10 µM [21] was -29%. For the same molecule, the growth at 10 µM [22] was -41%, the growth at 10 µM [23] was -89.3% and the growth at 10 µM [24] was -96.5%. For the same molecule, the growth at 10 µM [25] was -67.1%, the growth at 10 µM [26] was -70% and the growth at 10 µM [27] was -98%. It also gave a growth at 10 µM [28] of -76%, a growth at 10 µM [29] of -100% and a growth at 10 µM [30] of -29%. For the same molecule, the growth at 10 µM [31] was -100%, the growth at 10 µM [32] was -95.2% and the growth at 10 µM [33] was -40.9%. For the same molecule, the growth at 10 µM [34] was -88%, the growth at 10 µM [35] was -100% and the growth at 10 µM [36] was -96.7%. For the same molecule, the growth at 10 µM [37] was -99.5%.

For `C=CCn1c(C)nc2ccc(Nc3nc(Nc4ccc(F)cc4)nc4ccccc34)cc21`, the growth at 10 µM [1] was 47%, the growth at 10 µM [2] was -62% and the growth at 10 µM [3] was 50%. For the same molecule, the growth at 10 µM [4] was -27%, the growth at 10 µM [5] was 41% and the growth at 10 µM [6] was 21%. It also gave a growth at 10 µM [7] of 1%, a growth at 10 µM [8] of 48% and a growth at 10 µM [9] of 20%. For the same molecule, the growth at 10 µM [10] was 1%, the growth at 10 µM [11] was -91% and the growth at 10 µM [12] was -8%. It also gave a growth at 10 µM [13] of 42%, a growth at 10 µM [14] of 47% and a growth at 10 µM [15] of 64%. It also gave a growth at 10 µM [16] of 33%, a growth at 10 µM [17] of 24% and a growth at 10 µM [18] of 16%. For the same molecule, the growth at 10 µM [19] was 43%, the growth at 10 µM [20] was -90% and the growth at 10 µM [21] was 2%. The growth at 10 µM [22] was -43%, the growth at 10 µM [23] was -63% and the growth at 10 µM [24] was -11%. It also gave a growth at 10 µM [25] of 26%, a growth at 10 µM [26] of 26% and a growth at 10 µM [27] of 47%. It also gave a growth at 10 µM [28] of 63%, a growth at 10 µM [29] of -54% and a growth at 10 µM [30] of -18%. The growth at 10 µM [31] was 40%, the growth at 10 µM [32] was -100% and the growth at 10 µM [33] was 4%. For the same molecule, the growth at 10 µM [34] was -91%, the growth at 10 µM [35] was 42% and the growth at 10 µM [36] was -68%. It also gave a growth at 10 µM [37] of -70%.
